Measured values from PubChem BioAssay (NCI).
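Step 1: Grow cells in 96-well plates. Step 2: Expose to compound for 48 hours at 5 concentrations. Step 3: Interpolate endpoints linearly; if unreached, use highest concentration. Here, GI50 denotes the concentration required for 50% inhibition of growth. TGI: concentration producing complete growth inhibition.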

What was measured:
Assay in all cases: growth of human tumour cells (NCI), 48 h
786-0 renal = system: 786-0 renal
A498 renal = system: A498 renal
A549 NSCLC = system: A549 NSCLC
ACHN renal = system: ACHN renal
BT-549 breast = system: BT-549 breast
CAKI-1 renal = system: CAKI-1 renal
CCRF-CEM leukemia = system: CCRF-CEM leukemia
COLO 205 colon = system: COLO 205 colon
DU-145 prostate = system: DU-145 prostate
EKVX NSCLC = system: EKVX NSCLC
HCC-2998 colon = system: HCC-2998 colon
HCT-116 colon = system: HCT-116 colon
HCT-15 colon = system: HCT-15 colon
HL-60(TB) leukemia = system: HL-60(TB) leukemia
HOP-62 NSCLC = system: HOP-62 NSCLC
HOP-92 NSCLC = system: HOP-92 NSCLC
HS 578T breast = system: HS 578T breast
HT29 colon = system: HT29 colon
IGROV1 ovarian = system: IGROV1 ovarian
K-562 leukemia = system: K-562 leukemia
KM12 colon = system: KM12 colon
LOX IMVI melanoma = system: LOX IMVI melanoma
M14 melanoma = system: M14 melanoma
MALME-3M melanoma = system: MALME-3M melanoma
MCF7 breast = system: MCF7 breast
MDA-MB-231 breast = system: MDA-MB-231 breast
MDA-MB-435 = system: MDA-MB-435
MOLT-4 leukemia = system: MOLT-4 leukemia
NCI-H226 lung = system: NCI-H226 lung
NCI-H23 lung = system: NCI-H23 lung
NCI-H460 lung = system: NCI-H460 lung
NCI-H522 lung = system: NCI-H522 lung
NCI/ADR-RES ovarian = system: NCI/ADR-RES ovarian
OVCAR-3 ovarian = system: OVCAR-3 ovarian
OVCAR-4 ovarian = system: OVCAR-4 ovarian
OVCAR-5 ovarian = system: OVCAR-5 ovarian
OVCAR-8 ovarian = system: OVCAR-8 ovarian
PC-3 prostate = system: PC-3 prostate
RPMI-8226 leukemia = system: RPMI-8226 leukemia
RXF 393 renal = system: RXF 393 renal
SF-268 CNS = system: SF-268 CNS
SF-295 CNS = system: SF-295 CNS
SF-539 CNS = system: SF-539 CNS
SK-MEL-2 melanoma = system: SK-MEL-2 melanoma
SK-MEL-28 melanoma = system: SK-MEL-28 melanoma
SK-MEL-5 melanoma = system: SK-MEL-5 melanoma
SK-OV-3 ovarian = system: SK-OV-3 ovarian
SN12C renal = system: SN12C renal
SNB-19 CNS = system: SNB-19 CNS
SNB-75 CNS = system: SNB-75 CNS
SR leukemia = system: SR leukemia
SW-620 colon = system: SW-620 colon
TK-10 renal = system: TK-10 renal
U251 CNS = system: U251 CNS
UACC-257 melanoma = system: UACC-257 melanoma
UACC-62 melanoma = system: UACC-62 melanoma
UO-31 renal = system: UO-31 renal

Q: Which GI50 (786-0 renal) does the source give for `CCC[C@H](Nc1nc(-c2ccc(NC(=O)NCC)c(OC)c2)ncc1C)c1cccnc1` here?
A: 45.3 nM

Q: What about the TGI (786-0 renal) of the same molecule?
A: 12600 nM

Q: And the GI50 (A498 renal)?
A: 32.2 nM

Q: What about the TGI (A498 renal) of the same molecule?
A: 864 nM

Q: And the GI50 (A549 NSCLC)?
A: 37.8 nM

Q: What about the TGI (A549 NSCLC) of the same molecule?
A: > 36200 nM

Q: And the GI50 (ACHN renal)?
A: 72.1 nM

Q: And the TGI (ACHN renal)?
A: 35200 nM

Q: And the GI50 (BT-549 breast)?
A: 41.3 nM

Q: And the TGI (BT-549 breast)?
A: 26000 nM

Q: What about the GI50 (CAKI-1 renal) of the same molecule?
A: 222 nM

Q: What about the TGI (CAKI-1 renal) of the same molecule?
A: 24000 nM

Q: And the GI50 (CCRF-CEM leukemia)?
A: 32 nM

Q: And the GI50 (COLO 205 colon)?
A: 28.2 nM

Q: And the TGI (COLO 205 colon)?
A: 73.6 nM

Q: What about the GI50 (DU-145 prostate) of the same molecule?
A: 28 nM

Q: What about the TGI (DU-145 prostate) of the same molecule?
A: 75.3 nM

Q: And the GI50 (EKVX NSCLC)?
A: 62.1 nM

Q: What about the TGI (EKVX NSCLC) of the same molecule?
A: > 100000 nM

Q: What about the GI50 (HCC-2998 colon) of the same molecule?
A: 29.5 nM

Q: What about the TGI (HCC-2998 colon) of the same molecule?
A: 874 nM

Q: And the GI50 (HCT-116 colon)?
A: 34.9 nM

Q: What about the TGI (HCT-116 colon) of the same molecule?
A: 10500 nM

Q: And the GI50 (HCT-15 colon)?
A: 112 nM

Q: And the TGI (HCT-15 colon)?
A: > 42500 nM

Q: What about the GI50 (HL-60(TB) leukemia) of the same molecule?
A: 24.6 nM

Q: What about the TGI (HL-60(TB) leukemia) of the same molecule?
A: 58.2 nM

Q: What about the GI50 (HOP-62 NSCLC) of the same molecule?
A: 63.8 nM

Q: And the TGI (HOP-62 NSCLC)?
A: 39700 nM

Q: And the GI50 (HOP-92 NSCLC)?
A: 236 nM

Q: And the TGI (HOP-92 NSCLC)?
A: 12500 nM

Q: And the GI50 (HS 578T breast)?
A: 34.5 nM

Q: What about the GI50 (HT29 colon) of the same molecule?
A: 36.1 nM

Q: And the TGI (HT29 colon)?
A: 16900 nM

Q: And the GI50 (IGROV1 ovarian)?
A: 56.6 nM

Q: What about the TGI (IGROV1 ovarian) of the same molecule?
A: 24600 nM

Q: What about the GI50 (K-562 leukemia) of the same molecule?
A: 31 nM

Q: What about the TGI (K-562 leukemia) of the same molecule?
A: 16400 nM

Q: What about the GI50 (KM12 colon) of the same molecule?
A: 33.7 nM

Q: And the TGI (KM12 colon)?
A: 225 nM

Q: And the GI50 (LOX IMVI melanoma)?
A: 41.5 nM

Q: What about the TGI (LOX IMVI melanoma) of the same molecule?
A: 13800 nM

Q: And the GI50 (M14 melanoma)?
A: 28.2 nM

Q: And the TGI (M14 melanoma)?
A: 82.4 nM

Q: And the GI50 (MALME-3M melanoma)?
A: 13800 nM

Q: What about the TGI (MALME-3M melanoma) of the same molecule?
A: 49100 nM

Q: And the GI50 (MCF7 breast)?
A: 36.5 nM

Q: What about the TGI (MCF7 breast) of the same molecule?
A: 29600 nM

Q: And the GI50 (MDA-MB-231 breast)?
A: 37.2 nM

Q: What about the TGI (MDA-MB-231 breast) of the same molecule?
A: 1720 nM

Q: And the GI50 (MDA-MB-435)?
A: 21.9 nM

Q: And the TGI (MDA-MB-435)?
A: 53.3 nM

Q: What about the GI50 (MOLT-4 leukemia) of the same molecule?
A: 35.9 nM

Q: What about the TGI (MOLT-4 leukemia) of the same molecule?
A: 13100 nM

Q: What about the GI50 (NCI-H226 lung) of the same molecule?
A: 53.1 nM

Q: What about the TGI (NCI-H226 lung) of the same molecule?
A: 25700 nM

Q: What about the GI50 (NCI-H23 lung) of the same molecule?
A: 44.4 nM

Q: And the TGI (NCI-H23 lung)?
A: 6930 nM

Q: And the GI50 (NCI-H460 lung)?
A: 35.7 nM

Q: And the TGI (NCI-H460 lung)?
A: 13300 nM

Q: What about the GI50 (NCI-H522 lung) of the same molecule?
A: 34.5 nM

Q: What about the TGI (NCI-H522 lung) of the same molecule?
A: 868 nM

Q: And the GI50 (NCI/ADR-RES ovarian)?
A: 214 nM

Q: And the TGI (NCI/ADR-RES ovarian)?
A: 9970 nM

Q: And the GI50 (OVCAR-3 ovarian)?
A: 22.1 nM

Q: And the TGI (OVCAR-3 ovarian)?
A: 49.2 nM

Q: What about the GI50 (OVCAR-4 ovarian) of the same molecule?
A: 69.1 nM

Q: And the TGI (OVCAR-4 ovarian)?
A: 41800 nM

Q: And the GI50 (OVCAR-5 ovarian)?
A: 57.9 nM

Q: What about the TGI (OVCAR-5 ovarian) of the same molecule?
A: > 100000 nM

Q: And the GI50 (OVCAR-8 ovarian)?
A: 36.9 nM

Q: What about the TGI (OVCAR-8 ovarian) of the same molecule?
A: 14600 nM

Q: What about the GI50 (PC-3 prostate) of the same molecule?
A: 47 nM

Q: And the TGI (PC-3 prostate)?
A: > 55600 nM

Q: And the GI50 (RPMI-8226 leukemia)?
A: 37 nM

Q: What about the TGI (RPMI-8226 leukemia) of the same molecule?
A: 15100 nM

Q: What about the GI50 (RXF 393 renal) of the same molecule?
A: 41.5 nM

Q: And the TGI (RXF 393 renal)?
A: 20000 nM

Q: What about the GI50 (SF-268 CNS) of the same molecule?
A: 53.4 nM

Q: And the TGI (SF-268 CNS)?
A: 14700 nM

Q: And the GI50 (SF-295 CNS)?
A: 25.3 nM

Q: What about the TGI (SF-295 CNS) of the same molecule?
A: 67.8 nM

Q: What about the GI50 (SF-539 CNS) of the same molecule?
A: 33.4 nM

Q: And the TGI (SF-539 CNS)?
A: 3870 nM

Q: And the GI50 (SK-MEL-2 melanoma)?
A: 47.7 nM

Q: What about the TGI (SK-MEL-2 melanoma) of the same molecule?
A: 20700 nM

Q: And the GI50 (SK-MEL-28 melanoma)?
A: 1140 nM

Q: What about the TGI (SK-MEL-28 melanoma) of the same molecule?
A: > 61600 nM

Q: And the GI50 (SK-MEL-5 melanoma)?
A: 27.3 nM

Q: And the TGI (SK-MEL-5 melanoma)?
A: 91.2 nM

Q: And the GI50 (SK-OV-3 ovarian)?
A: 36.5 nM

Q: And the TGI (SK-OV-3 ovarian)?
A: 15000 nM

Q: What about the GI50 (SN12C renal) of the same molecule?
A: 48.6 nM

Q: And the TGI (SN12C renal)?
A: 20500 nM

Q: What about the GI50 (SNB-19 CNS) of the same molecule?
A: 44.1 nM

Q: What about the TGI (SNB-19 CNS) of the same molecule?
A: > 84800 nM

Q: And the GI50 (SNB-75 CNS)?
A: 48.9 nM

Q: What about the TGI (SNB-75 CNS) of the same molecule?
A: 22800 nM

Q: And the GI50 (SR leukemia)?
A: 30 nM

Q: And the TGI (SR leukemia)?
A: 1710 nM

Q: And the GI50 (SW-620 colon)?
A: 42.5 nM

Q: What about the TGI (SW-620 colon) of the same molecule?
A: > 88400 nM

Q: And the GI50 (TK-10 renal)?
A: 14300 nM

Q: And the TGI (TK-10 renal)?
A: 55100 nM

Q: And the GI50 (U251 CNS)?
A: 39.5 nM

Q: What about the TGI (U251 CNS) of the same molecule?
A: 17700 nM

Q: And the GI50 (UACC-257 melanoma)?
A: 820 nM

Q: What about the TGI (UACC-257 melanoma) of the same molecule?
A: 28800 nM

Q: What about the GI50 (UACC-62 melanoma) of the same molecule?
A: 57.2 nM

Q: What about the TGI (UACC-62 melanoma) of the same molecule?
A: > 48500 nM

Q: And the GI50 (UO-31 renal)?
A: 277 nM

Q: And the TGI (UO-31 renal)?
A: 17200 nM
